These results are taken from PubChem BioAssay (NCI).

Several values for one entry are separate records, joined by “and”; a condition that tells them apart may be missing. Equal values may be shown once.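 1) Cells in 96-well plates. 2) Compound, 48 h, 5 concentrations. 3) Linear interpolation between surrounding doses. 4) Unreached endpoint = highest concentration. GI50 marks 50% less growth. TGI: concentration producing complete growth inhibition.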 Where only a bound is given, the exact number is not on record here.

Among the test systems are CCRF-CEM leukemia; EKVX NSCLC; HCC-2998 colon; HOP-92 NSCLC; LOX IMVI melanoma; NCI-H460 lung; OVCAR-3 ovarian; SN12C renal; SNB-19 CNS; SNB-75 CNS.
Common to all, as to test: NCI tumour cell line growth inhibition, 48 h

On to `CC(C)=CCc1cc2c(cc1O)C1=C(C(=O)C3=C(NCCS3(=O)=O)C1=O)C(C=C(C)C)O2` (stereo unspecified), for which the GI50 with CCRF-CEM leukemia was 4.53 µM; in the experiment on EKVX NSCLC, 6.24 µM; with HCC-2998 colon, 9.25 µM; in the experiment on HOP-92 NSCLC, 6.89 µM; in the experiment with LOX IMVI melanoma it was 4.48 µM; in the experiment with NCI-H460 lung, 5.35 µM. Further, the GI50 with OVCAR-3 ovarian is 2.13 µM; with SN12C renal it was 2.78 µM; in the experiment with SNB-19 CNS it was 3.81 µM; in the experiment with SNB-75 CNS, 10.8 µM. In addition, the TGI in the experiment with CCRF-CEM leukemia, in the experiment on EKVX NSCLC, in the experiment on HCC-2998 colon, with HOP-92 NSCLC, with LOX IMVI melanoma and in the experiment on NCI-H460 lung was greater than 16.7 µM throughout. Further, the TGI in the experiment with OVCAR-3 ovarian was 10.1 µM; with SN12C renal, 5.69 µM; in the experiment with SNB-19 CNS, 11.9 µM; in the experiment with SNB-75 CNS it was greater than 16.7 µM.

As for `COC(=O)c1c2c(c(C)[n+]([O-])c1C)C(=O)C(NCc1ccc(OC)cc1)=CC2=O`, the GI50 with CCRF-CEM leukemia was 2.86 µM; in the experiment on EKVX NSCLC it was 1.88 µM; in the experiment with HCC-2998 colon it was 2.27 µM; with HOP-92 NSCLC, 2.64 µM; in the experiment on LOX IMVI melanoma, 2.41 µM; with NCI-H460 lung it was 1.7 µM. Moreover, the GI50 with OVCAR-3 ovarian is 0.315 µM; in the experiment with SN12C renal it was 1.62 µM; in the experiment with SNB-19 CNS, 2.11 µM; in the experiment on SNB-75 CNS, 3.5 µM. Besides, the TGI in the experiment with CCRF-CEM leukemia came to 12.8 µM; in the experiment with EKVX NSCLC, 4.44 µM; in the experiment with HCC-2998 colon it was 5.94 µM; in the experiment on HOP-92 NSCLC, 5.91 µM; with LOX IMVI melanoma, 7.3 µM; in the experiment on NCI-H460 lung it was 6.39 µM. For the same molecule, the TGI is 1.2 µM in the experiment on OVCAR-3 ovarian, 3.65 µM with SN12C renal, 5.03 µM in the experiment with SNB-19 CNS and 14.3 µM in the experiment with SNB-75 CNS.

In the case of `CC(=O)OC(C)(C)C1CC[C@]2(C)/C=C/C(C)C[C@@H](O)/C=C(\C)CC(O)C12` (stereo partly specified), the TGI in the experiment with CCRF-CEM leukemia, in the experiment on EKVX NSCLC, in the experiment with HCC-2998 colon, in the experiment on HOP-92 NSCLC, in the experiment with LOX IMVI melanoma and with NCI-H460 lung was greater than 100 µM in each case. The TGI in the experiment with OVCAR-3 ovarian, in the experiment with SN12C renal, with SNB-19 CNS and in the experiment on SNB-75 CNS was greater than 100 µM each time.

For the molecule `COc1cc2c(c3oc(-c4ccc(O)cc4)c(O)c(=O)c13)CCC(C)(C)O2`, the GI50 is 0.359 µM in the experiment with CCRF-CEM leukemia; 0.308 µM in the experiment with EKVX NSCLC; 0.254 µM with HCC-2998 colon; 0.217 µM in the experiment on HOP-92 NSCLC; 0.104 µM in the experiment with LOX IMVI melanoma; 0.0996 µM in the experiment on NCI-H460 lung. The GI50 in the experiment with OVCAR-3 ovarian was 0.431 µM; in the experiment on SN12C renal it was 0.271 µM; in the experiment with SNB-19 CNS, 0.16 µM; in the experiment on SNB-75 CNS it was 0.103 µM. The TGI in the experiment on CCRF-CEM leukemia is greater than 100 µM; in the experiment on HCC-2998 colon, 0.672 µM; in the experiment on HOP-92 NSCLC, 0.902 µM; with LOX IMVI melanoma, 0.328 µM; with NCI-H460 lung, 0.351 µM; in the experiment on OVCAR-3 ovarian it was 27.4 µM. Also, the results for the TGI in the experiment with SN12C renal, in the experiment with SNB-19 CNS and in the experiment with SNB-75 CNS were 0.884 µM, greater than 23.4 µM and 0.283 µM, respectively.

Turning to `COc1ccc(-c2csc3c2-n2cccc2C3=O)cc1`, the GI50 in the experiment on CCRF-CEM leukemia is 0.0299 µM; in the experiment on EKVX NSCLC, 0.597 µM; with HCC-2998 colon it was 0.232 µM; in the experiment with HOP-92 NSCLC, 0.0919 µM; in the experiment on LOX IMVI melanoma, 0.0349 µM; in the experiment on NCI-H460 lung it was 0.273 µM. The GI50 with SN12C renal was 0.0681 µM; in the experiment with SNB-19 CNS, 0.0394 µM. The TGI in the experiment on CCRF-CEM leukemia is greater than 100 µM; in the experiment on EKVX NSCLC it was greater than 81.4 µM; in the experiment on HCC-2998 colon it was 2.56 µM and 5.8 µM; with HOP-92 NSCLC, greater than 100 µM; in the experiment on LOX IMVI melanoma, greater than 100 µM; with NCI-H460 lung, greater than 43 µM. Moreover, the TGI in the experiment with OVCAR-3 ovarian was 0.264 µM; in the experiment with SN12C renal, greater than 100 µM; in the experiment with SNB-19 CNS, greater than 100 µM; in the experiment with SNB-75 CNS it was 0.434 µM.

For `O=S1OC(c2ccccc2)(c2ccccc2)C(c2ccccc2)(c2ccccc2)O1`, the TGI in the experiment with CCRF-CEM leukemia, in the experiment on EKVX NSCLC, in the experiment on HCC-2998 colon, with HOP-92 NSCLC, with LOX IMVI melanoma and in the experiment with NCI-H460 lung was greater than 100 µM throughout. For the same molecule, the TGI in the experiment on OVCAR-3 ovarian, in the experiment on SN12C renal, with SNB-19 CNS and with SNB-75 CNS was greater than 100 µM throughout.

`COC(=O)[C@@H](C)C[C@H](Cc1ccccc1)NC(=O)c1nc([C@@H](C[C@H](C(C)C)N(C)C(=O)[C@@H](NC(=O)[C@H]2C[C@H](O)CCN2C)C(C)C)OC(C)=O)sc1C(C)C`: the GI50 in the experiment with CCRF-CEM leukemia is 0.00525 µM; in the experiment with EKVX NSCLC, 0.161 µM; with HCC-2998 colon it was 0.00353 µM; in the experiment with HOP-92 NSCLC, 0.00491 µM; with LOX IMVI melanoma, 0.00437 µM; in the experiment on NCI-H460 lung, 0.0076 µM. In addition, the GI50 in the experiment on OVCAR-3 ovarian is 0.00148 µM; in the experiment on SN12C renal, 0.00671 µM; in the experiment on SNB-19 CNS it was 0.00424 µM; with SNB-75 CNS it was 0.00462 µM. Besides, the TGI was greater than 11.1 µM in the experiment with CCRF-CEM leukemia; greater than 11.1 µM in the experiment on EKVX NSCLC; 4.52 µM with HCC-2998 colon; 7.05 µM in the experiment on HOP-92 NSCLC; greater than 5.38 µM with LOX IMVI melanoma; greater than 11.1 µM with NCI-H460 lung. The TGI in the experiment with SN12C renal is 3.3 µM; in the experiment with SNB-19 CNS, greater than 11.1 µM; in the experiment with SNB-75 CNS, 3.85 µM.

As to `CS(=O)(=O)OCCN(CCOS(C)(=O)=O)c1ccc(C=Nc2ccc(-c3csc(COc4ccccc4)n3)cc2)cc1`, the TGI is 35.6 µM with CCRF-CEM leukemia; 16.5 µM with EKVX NSCLC; 7.59 µM with HCC-2998 colon; 35 µM in the experiment with HOP-92 NSCLC; 18.1 µM in the experiment with LOX IMVI melanoma; 2.1 µM in the experiment with NCI-H460 lung. Further, the TGI with OVCAR-3 ovarian turned out to be 15.3 µM; in the experiment on SN12C renal, 18.7 µM; in the experiment with SNB-19 CNS, 32.6 µM; in the experiment on SNB-75 CNS, 11.6 µM.
